Consider 12 compounds from patent publication US8961930B2, “Isatin derivatives for use as in vivo imaging agents” (Imperial Innovations Limited, priority 2008, dated 2015).

Data set [1] has as its target T1, caspase 3 (Homo sapiens, UniProt P42574).
T1 sequence (P42574 29-175 limits assumed): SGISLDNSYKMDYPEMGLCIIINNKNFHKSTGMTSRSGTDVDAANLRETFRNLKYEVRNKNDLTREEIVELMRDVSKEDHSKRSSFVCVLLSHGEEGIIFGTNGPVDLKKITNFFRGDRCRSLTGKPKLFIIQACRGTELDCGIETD
T1 sequence (P42574 176-277 limits assumed): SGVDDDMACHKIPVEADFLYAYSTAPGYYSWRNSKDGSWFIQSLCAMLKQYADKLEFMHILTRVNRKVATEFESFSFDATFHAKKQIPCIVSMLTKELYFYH
Put plainly: Fluorimetric in vitro caspase inhibition assay (7-AMC), caspase 3. The arrangement: purchased Biomol International, UK. The note with it: for EC50: recombinant human caspase 3, 10 μM Ac-DEVD-AMC; for increase in potency as compared to known benzyl derivative 15: caspase 3, versus compound 15. It counts as biochemical. The procedure:
Recombinant human caspases-1, -3, -6, -7, and -8 and their peptide-specific substrates were purchased from Biomol International, UK Inhibition of the recombinant caspases by non-radioactive isatins was assessed using a fluorometric assay that measures the accumulation of a fluorogenic product, 7-amino-4-methylcoumarin (7-AMC). All assays were performed in 96-well plates at a volume of 200 μl per well. The assays were performed at 37° C. in an appropriate reaction buffer as described below for each caspase. For caspase 1, the buffer comprised of 0.1% CHAPS, 100 mM NaCl, 5 mM 2-mercaptoethanol, 100 mM HEPES (pH 7.4), 2 mM EDTA, 10% sucrose, and 10 μM of the peptide substrate Ac-YVAD-AMC. For caspase 3: 20 mM HEPES (pH 7.4), 10% sucrose, 100 mM NaCl, 0.1% CHAPS, 2 m, mM EDTA, and 10 μM Ac-DEVD-AMC. For caspase 6: 20 mM HEPES (pH 7.4), 10% sucrose, 100 mM NaCl, 0.1% CHAPS, 2 mM EDTA, and 10 μM Ac-VEID-AMC. For caspase 7: 20 mM HEPES (pH 7.4), 10% sucrose, 5 mM 2-mercaptoethanol, 100 mM NaCl, 0.1% CHAPS, 2 mM EDTA, 10 μM Ac-DEVD-AMC. For caspase 8: 20 mM HEPES (pH 7.4), 10% sucrose, 100 mM NaCl, 0.1% CHAPS, 2 mM EDTA, and 10 μM Ac-IETD-AMC. The Buffers contained non-radioactive isatins in DMSO at a final concentration of 500, 50, 5 μM; 500, 50, 5 nM; 500, 50, 5 pM; the final concentration of DMSO in all wells was 5% of the total volume. Recombinant caspases were used at 0.5 units per assay (˜500 pmol substrate converted per h). All reagents except the peptide substrate were pre-incubated for 10 min. The peptide substrate (final concentration 10 μM) was then added and the plate was incubated for a further 30 min; 30 min was selected after initial linearity study where reaction was assessed after 10, 30, 60 or 90 min. The 30 min time point was selected. Respective control wells contained all reaction components without enzyme. The amount of 7-AMC produced was measured on a fluorescence microplate reader (Victor2; Perkin-Elmer Life sciences) at excitation and emission wavelengths of 355 nm and 460 nm, respectively. The concentration of isatin that inhibits the caspase activity by 50% (EC50) was estimated by non-linear regression analysis using GraphPad Prism (Version 4.0 for Windows, GraphPad Software, San Diego Calif. USA). All the isatins were analyzed in duplicate; the assays were repeated once.
The data are the average for two runs, each of which was duplicated, at nine concentrations ranging from 5 pM to 500 μM; the drug concentration required to inhibit each enzyme by 50% (EC50) was obtained from nonlinear regression analysis of the inhibition profiles.

Data set [2] in a line: In vitro mouse liver S9 metabolism studies. It counts as in vitro ADME. Conditions: 60 min incubation, 37° C., HPLC. Here is the method:
Liver S9 metabolism studies were performed as described in Aboagye et al^19. Mouse livers were rapidly excised and kept at 4° C. throughout the experiment. Tissues were weighed and homogenized in an equivalent volume of 50 mM Tris-150 mM KCl-HCl buffer (pH 7.4) using an Ultra-Thurrax homogenizer (IKA, Staufen, Germany). To obtain the S9 fraction, the homogenate was centrifuged (10,000×g) for 30 min to remove nuclei, mitochondria and cell debris. Protein concentration of the S9 fraction was determined by a commercial BCA protein assay kit (Perbio Science, Cheshire, UK). S9 fractions were stored at −80° C. for up to 6 weeks. […]
Immediately prior to extraction the samples were thawed and placed on ice. For extraction, ice cold acetonitrile (1.5 mL) was added to plasma (0.2 mL); S9 incubation samples (3 mL) containing acetonitrile were also analysed. […] The samples (1 mL) were then analyzed by radio-HPLC on an Agilent 1100 series HPLC system (Agilent Technologies, Stockport, UK) equipped with a γ-RAM Model 3 gamma-detector and the Laura software (IN/US Systems inc., Florida, USA).
The stationary phase comprised of a Waters μBondapak C18 reverse-phase column (300×7.8 mm). For analysis of [^125I]14, plasma and liver samples were processed as above and analyzed by using a mobile phase comprising of water (0.1% TFA)/propan-1-ol (0.1% TFA) (35:65) running in isocratic mode at a flowrate of 2 mL/min. […]

For the compound `O=C1C(=O)N(Cc2ccc(F)cc2)c2ccc(S(=O)(=O)N3CCC[C@H]3COc3cccc(F)c3)cc21` [Compound 1, (S)-1-(4-Fluorobenzyl)-5-(2-(3-fluorophenoxymethyl)-pyrrolidine-1-sulfonyl)isatin], the EC50 in data set [1] came out at 17 nM. The “increase of affinity for caspase 3 as compared with compound 14” value in data set [1] (versus known compound 14) was “two- to three-fold”.

On to `O=C1C(=O)N(Cc2ccc(F)cc2)c2ccc(S(=O)(=O)N3CCC[C@H]3COc3ccc(F)cc3F)cc21` [Compound 2, (S)-1-(4-Fluorobenzyl)-5-(2-(2,4-difluorophenoxymethyl)-pyrrolidine-1-sulfonyl)isatin], for which, in data set [1], the EC50 worked out at 12.4 nM. With `O=C1C(=O)N(Cc2ccc(F)cc2)c2ccc(S(=O)(=O)N3CCC[C@H]3COC3CCOCC3)cc21` [Compound 4, (S)-1-(4-Fluorobenzyl)-5-(2-(tetrahydro-2H-pyran-4-yloxymethyl)-pyrrolidine-1-sulfonyl)isatin], in data set [1], the “increase in potency as compared to known benzyl derivative 15” value was “five-fold” and the EC50 turned out to be 10.7 nM. Turning to `O=C1C(=O)N(Cc2ccc(F)cc2)c2ccc(S(=O)(=O)N3CCC[C@H]3COc3ccncn3)cc21` [Compound 5, (S)-1-(4-Fluorobenzyl)-5-(2-(pyrimidin-4-yloxymethyl)-pyrrolidine-1-sulfonyl)isatin], in data set [1], the concentration for a half-maximal effect (EC50) came out at 5.5 nM. As for `O=C1C(=O)N(Cc2cn(CCF)nn2)c2ccc(S(=O)(=O)N3CCC[C@H]3COc3ccccc3)cc21` [Compound 10, (S)-1-((1-(2-Fluoroethyl)-1H-[1,2,3]-triazol-4-yl)methyl)-5-(2-phenoxymethyl-pyrrolidine-1-sulfonyl)isatin], in data set [1], the “increase in potency as compared to known benzyl derivative 15” value is on record as 4 fold and the EC50 amounted to 16.7 nM. As for `O=C1C(=O)N(Cc2cn(CCF)nn2)c2ccc(S(=O)(=O)N3CCC[C@H]3COc3ccc(F)cc3F)cc21` [Compound 11, (S)-1-((1-(2-Fluoroethyl)-1H-[1,2,3]-triazol-4-yl)methyl)-5-(2(2,4-difluorophenoxymethyl)-pyrrolidine-1-sulfonyl)isatin], in data set [1], the EC50 was found to be 0.5 nM. Turning to `O=C1C(=O)N(Cc2ccccc2)c2ccc(S(=O)(=O)N3CCC[C@H]3COc3ccccc3)cc21` [Compound 13, (S)-1-benzyl-5-(2-phenoxymethyl-pyrrolidine-1-sulfonyl)isatin, reference compound], in data set [1], the EC50 amounted to 41.8 nM.

With `O=C1C(=O)N(Cc2ccc(I)cc2)c2ccc(S(=O)(=O)N3CCC[C@H]3COc3ccccc3)cc21` [Compound 14, (S)-1-(4-iodobenzyl)-5-(2-phenoxymethyl-pyrrolidine-1-sulfonyl)isatin, reference compound], the “degradation in mouse liver S9 fraction” value in data set [2] was “near complete degradation”. With `O=C1C(=O)N(Cc2ccc(F)cc2)c2ccc(S(=O)(=O)N3CCC[C@H]3COc3ccccc3)cc21` [Compound 15, (S)-1-(4-fluorobenzyl)-5-(2-phenoxymethyl-pyrrolidine-1-sulfonyl)isatin, reference compound], in data set [1], the EC50 stood at 50.5 nM. For the same compound, the “degradation in mouse liver S9 fraction” value in data set [2] is given as “near complete degradation”. As for `O=C1C(=O)N(Cc2ccc(F)cc2)c2ccc(S(=O)(=O)N3CCCC3)cc21` [Compound 16, 1-(4-Fluorobenzyl)-5-(pyrrolidine-1-sulfonyl)isatin, reference compound], the EC50 in data set [1] was found to be 200 nM. On the same count and under the same terms, then `O=C1C(=O)N(Cc2ccc(F)cc2)c2ccc(S(=O)(=O)N3CCC[C@H]3COc3ccc(F)cc3)cc21` [Compound 22, (S)-1-(4-Fluorobenzyl)-5-(2-(4-fluorophenoxymethyl)-pyrrolidine-1-sulfonyl)isatin], with 26.1 nM; and `C#CCN1C(=O)C(=O)c2cc(S(=O)(=O)N3CCC[C@H]3COc3ccc(F)cc3F)ccc21` [Compound 25, (S)-1-(2-Propynyl)-5-(2-(2,4-difluorophenoxymethyl)-pyrrolidine-1-sulfonyl)isatin], with 50.1 nM.

By EC50 is commonly meant the concentration needed to bring the measured effect to its halfway point.
